Test results published in patent publication US20250257075A1, “MACROCYCLIC INHIBITORS OF KRAS FOR THE TREATMENT OF CANCER” (Hoffmann-La Roche Inc., priority 2022, published 2025).

Experiments:
KRAS G12C-BRAF complex = molecular target: T1, KRAS G12C-BRAF complex (Homo sapiens, UniProt P01116+P62937, G12C); test: KRAS G12C-BRAF NanoBit assay in HEK293 cells; assay type: cell-based; conditions: HEK293 stable cell pool, 3 hours of incubation
T1 construct: expressed in transfected cells
How it was run: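 HEK293 stable pool co-expressing SmBiT-KRAS G12C and BRAF RBD-LgBiT, exposed 3 h to compounds (16-point 3-fold dilution, top final 30 μM). Luminescence was read 20 min after Nano-Glo Live Cell substrate addition. A decrease versus DMSO control indicates disruption of the complex.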

AGS cells (KRAS G12D) = test: Cell viability assay, G12D; assay type: cell-based, human; conditions: Homo sapiens, 72 hrs, Cell Counting Kit-8
How it was run: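 72-hr compound treatment, 0.5% DMSO final; NCI-H358 seeded 5,000 cells/well, AGS and SW620 2,000 cells/well. Endpoint: CCK-8, 2-hr development, OD450 minus OD650.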

[1] = GSH Reaction Rates (inherent GSH reactivity); assay type: in vitro ADME; conditions: for T½(hour) in GSH: pH 7.4, up to 6 h
Description: Glutathione (GSH) is a tripeptide found in most of the tissues, especially in high concentrations in the liver, and plays critical roles in protecting cells from oxidative damage and the toxicity of xenobiotic electrophiles, and maintaining redox homeostasis. More specifically, glutathione conjugation helps contribute to detoxification by binding electrophiles that could otherwise bind to proteins or nucleic acids, resulting in cellular damage and genetic mutations.
Many potentially toxic electrophilic xenobiotics and some endogenous compounds are detoxified by conversion to the corresponding glutathione S-conjugate, which consumes inherent GSH and then diminishes detoxification effects. Some drugs and halogenated workplace/environmental contaminants are bioactivated by this mechanism.
Therefore Strategy to minimize the GSH metabolism is very critical. Short T1/2 in inherent GSH reaction indicated high GSH reaction rate. Thus T1/2 in inherent GSH reaction assay was determined for the screening of candidates.
Reference compounds and compounds of this invention potentially could form conjugation with GSH either through halogenated moieties substitution reaction or direct Michael addition reaction. This test was therefore performed to check GSH reactivity of listed compounds.
For inherent GSH reactivity determination, compounds at 1 μM were incubated at 37° C. with and without 5 mM GSH for 0, 0.5, 1, 2, 4 and 6 h in 100 mM potassium phosphate buffer at pH 7.4. At the end of the designated time points, samples were quenched with acetonitrile containing 10 mM N-ethylmaleimide and an internal standard. Quenched samples were centrifuged, and supernatants were analyzed by LC-MS/MS for compound quantification.

[2] = tested on: Miapaca-2 mutant cells KRAS G12C + D92R; test: Stable KRAS mutant cell line viability assay (CTG), G12C + D92R; assay type: cell-based; conditions: Homo sapiens, MIA PaCa-2, 72 h, 3 d, CellTiter-Glo
Description: (§1) The aim of the study was to determine the potency and efficacy of compounds for cell proliferation using CellTiter-Glo® (CTG) Luminescent Cell Viability Assay (Promega Corp., Madison, WI). We cloned […] KRAS^G12C variant sequences with secondary mutations (V8A, V9Y, S17E, T58I, A59T, S65W, R68S, D69P, M72I, D92R, H95N, Y96D, Q99F, Q99W, Y96H, and F156L) into the Miapaca-2. Totally 14 stable Miapaca-2 mutant cell lines were established through lentivirus infection. For the cell viability assay, cells were dosed with compounds in a 9-point dose-response using a 4 fold dilution series at a top dose of 10 μM. KRAS mutant cells were maintained in DMEM+10% FBS+2.5% HI Horse serum+1% PS+1 μg/mL Puromycin and seeded into 96-well plates at 800-1,500 cells per well 24 h before compound addition and then incubated with compound for 3 d before assaying viability (CellTiter-Glo, Promega). Assays were performed in biological duplicates. Nonlinear regression curves were fitted using Xfit. IC50 (absolute IC50) is the dose at which the estimated viability is 50% relative to untreated wells.

[3] = tested on: Miapaca-2 mutant cells KRAS G12C + D60P; test: Stable KRAS mutant cell line viability assay (CTG), G12C + D60P; assay type: cell-based; conditions: Homo sapiens, MIA PaCa-2, 72 h, 3 d, CellTiter-Glo
[4] = Single Dose Pharmacokinetics (SDPK) study in female BALB/c mice; assay type: in vivo; conditions: mouse; for clearance: 3 mg/kg, iv; for clearance / AUC(0-t) / Cmax: female BALB/c mice, plasma
Experimental: The purpose of this study was to determine the pharmacokinetics of selected compounds following single intravenous bolus or oral gavage administration in female BALB/c mice. Briefly, two groups of female BALB/c mice (available from Zhejiang Vital River Laboratory Animal Technology Co., Ltd. or Shanghai Lingchang Biotechnology Co., Ltd) (N=3/group) were treated with a single dose of compound intravenously at 3 mg/kg (IV) or orally at 30 mg/kg (PO). Blood samples were collected at 5 min (only for IV), 15 min, 30 min, 1 h, 2 h, 4 h, 7 h and 24 h post-dose. Blood samples were placed on ice until centrifugation to obtain plasma samples. The concentration of compound in plasma samples was determined using LC-MS/MS method. The pharmacokinetic parameters were calculated by non-compartmental analysis.

[5] = tested on: Miapaca-2 mutant cells KRAS G12C + S65W; test: Stable KRAS mutant cell line viability assay (CTG), G12C + S65W; assay type: cell-based; conditions: Homo sapiens, MIA PaCa-2, 72 h, 3 d, CellTiter-Glo
Description: as §1

[6] = tested on: Miapaca-2 mutant cells KRAS G12C + F156L; test: Stable KRAS mutant cell line viability assay (CTG), G12C + F156L; assay type: cell-based; conditions: Homo sapiens, MIA PaCa-2, 72 h, 3 d, CellTiter-Glo
Description: as §1

[7] = 1 μM compound, 5 mM GSH, 37° C., pH 7.4, 6 hr
[8] = 1 μM compound, 5 mM GSH, 37° C.

T1 sequence (P01116 1-188 isoform P01116-2 G12C): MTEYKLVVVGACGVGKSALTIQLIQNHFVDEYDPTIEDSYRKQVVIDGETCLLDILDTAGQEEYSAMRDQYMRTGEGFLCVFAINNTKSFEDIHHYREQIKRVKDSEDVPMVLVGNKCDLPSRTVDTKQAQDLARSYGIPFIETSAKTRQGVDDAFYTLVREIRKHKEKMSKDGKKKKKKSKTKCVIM
T1 sequence (P62937 whole entry): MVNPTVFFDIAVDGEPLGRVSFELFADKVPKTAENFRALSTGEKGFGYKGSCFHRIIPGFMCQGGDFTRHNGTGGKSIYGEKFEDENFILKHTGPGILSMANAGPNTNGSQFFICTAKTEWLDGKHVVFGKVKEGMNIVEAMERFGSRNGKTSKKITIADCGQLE

IC50 (KRAS G12C-BRAF complex) | IC50 (AGS cells (KRAS G12D)) | Remaining at 6 hr in GSH (%) [1, 7] | IC50 [2] | Remaining at 6 hr in GSH (%) ([1]; 6 h, 1 μM, pH 7.4) | IC50 [3] | AUC0-last relative to A168 ([4]; 30 mg/kg, po, versus A168) | Cmax relative to A168 ([4]; 30 mg/kg, po, versus A168) | clearance [4] | AUC(0-t) ([4]; 30 mg/kg, po) | Cmax ([4]; 30 mg/kg, po) | IC50 [5] | IC50 [6] | half-life at 1 μM ([1]; pH 7.4) | Structure (SMILES) | T½(hour) in GSH [1, 8]
0.054 µM | > 5 µM | 90% |  |  |  |  |  |  |  |  |  |  |  | CCn1c(-c2cc(N3CCN(CC(F)(F)F)CC3)cnc2[C@H](C)OC)c2c3cc(c(F)cc31)-c1csc(n1)C[C@H](NC(=O)[C@H](C(C)C)N(C)C(=O)[C@H]1C[C@@H](C#CC(F)(F)F)C1)C(=O)N1CCC[C@H](N1)C(=O)OCC(C)(C)C2 (atropisomer, axis not shown; (M)) [Example 8, cis-N-[(1S)-1-[[(7S,13S)-21-ethyl-24-fluoro-(20M)-20-[2-[(1S)-1-methoxyethyl]-5-[4-(2,2,2-trifluoroethyl)piperazin-1-yl]-3-pyridyl]-17,17-dimethyl-8,14-dioxo-15-oxa-4-thia-9,21,27,28-tetrazapentacyclo[17.5.2.1^2,5.1^9,13.0^22,26]octacosa-1(25),2,5(28),19,22(26),23-hexaen-7-yl]carbamoyl]-2-methyl-propyl]-N-methyl-3-(3,3,3-trifluoroprop-1-ynyl)cyclobutanecarboxamide] | stable (If % depletion after 6 hour incubation is less than 20%, compounds were reported as stable)
0.036 µM | 3.57 µM | 100% |  |  |  |  |  |  |  |  |  |  |  | CO[C@@H](C)c1ncc(N2CCN(C)CC2)cc1-c1c2c3cc(c(F)cc3n1CC(F)(F)F)-c1csc(n1)C[C@H](NC(=O)[C@H](C(C)C)N(C)C(=O)[C@H]1C[C@@H](C#CC(F)(F)F)C1)C(=O)N1CCC[C@H](N1)C(=O)OCC(C)(C)C2 (atropisomer, axis not shown; (M)) [Example 3, cis-N-[(1S)-1-[[(7S,13S)-24-fluoro-(20M)-20-[2-[(1S)-1-methoxyethyl]-5-(4-methylpiperazin-1-yl)-3-pyridyl]-17,17-dimethyl-8,14-dioxo-21-(2,2,2-trifluoroethyl)-15-oxa-4-thia-9,21,27,28-tetrazapentacyclo[17.5.2.1^2,5.1^9,13.0^22,26]octacosa-1(25),2,5(28),19,22(26),23-hexaen-7-yl]carbamoyl]-2-methyl-propyl]-N-methyl-3-(3,3,3-trifluoroprop-1-ynyl)cyclobutanecarboxamide] | stable (If % depletion after 6 hour incubation is less than 20%, compounds were reported as stable)
0.012 µM | > 10 µM |  | 0.002 µM | 94% | 0.097 µM | 1.5 folds | ~2 folds | 14.2 mL/min/kg | 2180 ng·h/mL | 1510 ng/mL | 0.003 µM | 0.003 µM |  | CCn1c(-c2cc(N3CCOCC3)cnc2[C@H](C)OC)c2c3cc(c(F)cc31)-c1csc(n1)C[C@H](NC(=O)[C@H](C(C)C)N(C)C(=O)[C@H]1C[C@@H](C#CC(F)(F)F)C1)C(=O)N1CCC[C@H](N1)C(=O)OCC(C)(C)C2 (atropisomer, axis not shown; (M)) [Example 11, cis-N-[(1S)-1-[[(7S,13S)-21-ethyl-24-fluoro-(20M)-20-[2-[(1S)-1-methoxyethyl]-5-morpholino-3-pyridyl]-17,17-dimethyl-8,14-dioxo-15-oxa-4-thia-9,21,27,28-tetrazapentacyclo[17.5.2.1^2,5.1^9,13.0^22,26]octacosa-1(25),2,5(28),19,22(26),23-hexaen-7-yl]carbamoyl]-2-methyl-propyl]-N-methyl-3-(3,3,3-trifluoroprop-1-ynyl)cyclobutanecarboxamide] | 
0.205 µM | 2.19 µM |  |  | 77% |  |  |  | 77 mL/min/kg | 1580 ng·h/mL | 794 ng/mL |  |  | 28.9 h | CC#CC(=O)N1CC[C@H](C(=O)N(C)[C@H](C(=O)N[C@H]2Cc3nc(cs3)-c3ccc4c(c3)c(c(-c3cccnc3[C@H](C)OC)n4CC)CC(C)(C)COC(=O)[C@@H]3CCCN(N3)C2=O)C(C)C)C1 [Example A168, reference compound] | 
